Reference: patent US9604932B2 (priority 2013, dated 2017)

Legend:
[1] = Plasma pharmacokinetics in sheep (release of R-100 from R-107), LCMS; assay type: in vivo; settings: IV R-100 20 mg/kg bolus
Protocol: In the following two experiments, the pharmacokinetic of releasing R-100 from R-107, via R-105 that is the reduced form of R-100, was studied in vivo according to the protocol described herein.
100 μl aliquots plasma obtained from R-107-treated sheep or pig were thawed and 200 μl ice-cold ethanol was added to each 100 μl sample to precipitate protein. Samples were then vortexed, placed on ice for 10 minutes, and then spun down at room temperature for 15 minutes. A first 100 μl supernatant from each spun sample was withdrawn and placed in a labeled HPLC micro vial to which 300 μl MPA (LC mobile phase A) was added, and the vial contents were then mixed and submitted for LCMS analysis (kept at 4° C.). The concentration of R-107 was measured in this sample as was the concentration of R105. A second 100 μl supernatant from each spun sample was added to a labelled HPLC micro vial to which 300 μl MPA and 2 μl of Reducing solution (ascorbic acid, 1.0 mg/ml in water) were added. These vials were vortexed; incubated at 50° C. for 1 hour with gentle shaking; and were then cooled to 4° C. and submitted for LCMS analysis. This sample was analyzed for R105, i.e., reduced form of R-100, and the amount measured thus represents the sum of R-100 and R-105 originally present in the plasma. The concentration of R-100 can be calculated from that of the R-105 in the second sample minus that of R-105 in the first sample. However, the concentrations of R-105 were seen to be low (approximately 10% or less of those of R-100) and so the results reported below as R-100 are not corrected for R-105.
Sets of standards (R-100, R-105 and R-107) were prepared by spiking individually in pig plasma. 100 μl aliquots of these spiked plasma samples, after thawing, were included in the above extraction protocol.
Analysis method were carried out with an Agilent HPLC stack, with column eluate directed, via a diverter valve, into the source of an AB Sciex ‘Qstar Elite’ Hybrid TOF, high-resolution mass spectrometer. LC column: Phenomenex Kinetex C18 2.6u 100A, 2.1×50 mm. LC mobile phase A: H2O with 0.02% trifluoroacetic acid (TFA), 0.1% formic acid (HOF); Phase B: acetonitrile (ACN) with 0.02% TFA, 0.1% HOF. Mobile phase flow rate=500 μl/min. Injection size: 8 μl, via Agilent 1100 u-WPS autosampler. […]

[2] = cited from earlier work

## CC1(C)CC(CO[N+](=O)[O-])C(C)(C)N1[O] (centres unmarked) [R-100, 3-nitratomethyl-2,2,5,5-tetramethylpyrrolidinyloxy, reference compound]
[1]; 0 hrs post dose
  R-100 in plasma: 0 µg/mL
[1]; 0.08 hrs post dose
  R-100 in plasma: 6.72 µg/mL
[1]; 0.17 hrs post dose
  R-100 in plasma: 6.11 µg/mL
[1]; 0.25 hrs post dose
  R-100 in plasma: 5.31 µg/mL
[1]; 0.5 hrs post dose
  R-100 in plasma: 2.72 µg/mL
[1]; 1 hrs post dose
  R-100 in plasma: 1.63 µg/mL
[1]; 2 hrs post dose
  R-100 in plasma: 0.7 µg/mL
[1]; 4 hrs post dose
  R-100 in plasma: 0.28 µg/mL
[1]; 8 hrs post dose
  R-100 in plasma: 0.03 µg/mL
[2]
  Solubility in organic solvents: soluble in certain organic solvents such as dimethyl sulfoxide (DMSO)
  Solubility in water: highly insoluble in water
